Assay results: US20160361314A1, “COMBINATION OF AN ALK INHIBITOR AND A CDK INHIBITOR FOR THE TREATMENT OF CELL PROLIFERATIVE DISEASES” (NOVARTIS AG, priority 2013, published 2016)

Experiments:
Assay in all cases: Loewe additivity (CHALICE) synergy screen, CellTiter-Glo viability, 7x7 dose matrix
Type in all cases: cell-based
[1] = system: NGP human neuroblastoma cells; set-up: key to Synergy score (Mean): Loewe excess-inhibition synergy score; >0 synergistic, >2 strong; key to Max Combo Effect: growth inhibition scale; 100 = stasis; conditions: NGP (WT)
Description: The synergistic interaction of drug combinations were assessed based on the Loewe Additivity Model using Chalice software [CombinatoRx, Cambridge Mass.]). […] The software compares the response (% inhibition or % reduction of cell viability) of drug treatment from a combination of two agents to the response of the agents acting alone, against the drug-with-itself dose-additive reference model (the Loewe Additivity Model). Deviations from dose additives can be assessed numerically with a “synergy score” which quantifies the overall strength of combination effect. A synergy score >0 indicates a synergistic combination. In order to ensure only strongly synergistic combinations were selected, the acceptance criteria were set at a higher level. Strongly synergistic combinations were defined as having both a synergy score >2, a synergy score that is twice as large as the background (non-synergy) model would predict, and a maximum efficacy of >100, a value equivalent to stasis, as determined from the growth inhibition calculation.
(§1) After treatment, cell viabilty (quantity of viable cells) for each test mixtures were determined by the CellTiter-Glo® (CTG) luminescent cell viability assay (Promega) described in the Assay section, infra. […] The response to treatment (% reduction of cell viability) was analyzed using Chalice software [CombinatoRx, Cambridge Mass.]). Data evaluation and graph generation were performed using Microsoft Excel software and Chalice software.
(§2) Cell viability were determined by measuring cellular ATP content using the CellTiter-Glo® (CTG) luminescent cell viability assay (Promega). […] Reduced and enhanced luminescent signal values (responses) were calculated relative to untreated (control) cells, and the calculated signal value proportional to the cell viability.
(§3) Synergistic combinations were identified based on the Loewe Addivity Model. To measure the effects of drug combinations on the cell viability, cells from the 20 cell lines listed in Table 1 above were seeded into 1536-well assay plates at a density 300 cells per well in a 7 μL final volume and incubated at 37° C. overnight in a GNF Systems incubator with 95% RH and 5% CO2.
(§4) Approximately 18 hours after plating, compound combinations were generated on the fly by transferring 7.5 nL of compound from the pre-diluted source plates using the Labcyte ECHO555 integrated onto the ACP-1 system with replicate plates per cell line; the final DMSO concentration per well was 0.2%. It is noted that the total volume in the wells was 7 μL.
(§5) The well at the intersection of the first column and first row which received no compound was dosed with 2×7.5 nL of DMSO and served as control.
Following compound addition, the plates were returned to the incubator for 120 hours. The effects of the combinations on cellular viability were assessed with the addition of Cell Titer Glo (Promega G7573) using one of the GNF Bottle Valve dispensers on the ACP-1 system; plates were then incubated at room temperature for ten minutes and read on the integrated Perkin Elmer Viewlux (2 second exposure, 2×bin, high sensitivity). The raw data was normalized using the DMSO-treated cell control well within each plate.
All synergy calculations were performed using CHALICE software from Zalicus. […] Potential synergistic interactions between compound combinations were assessed using the Excess Inhibition 2D matrix according to the Loewe Additivity Model and are reported as synergy score.
Compounds were combined with themselves to determine the effect of assay noise on the synergy assessment parameters of the expected dose-additive interaction. Synergistic combination hits (strongly synergistic) were identified as having both a synergy score >2, a synergy score that is twice as large as the background model (non-synergy) would predict, and a maximum efficacy of >100, a value equivalent to stasis, as determined from the growth inhibition calculation.

[2] = system: KELLY human neuroblastoma cells; set-up: key to Max Combo Effect: growth inhibition scale; 100 = stasis; conditions: KELLY (F1174L)
Description: (§6) The synergistic interaction of drug combinations were assessed based on the Loewe Additivity Model using Chalice software [CombinatoRx, Cambridge Mass.]). […] 27:659-66. The software compares the response (% inhibition or % reduction of cell viability) of drug treatment from a combination of two agents to the response of the agents acting alone, against the drug-with-itself dose-additive reference model (the Loewe Additivity Model). Deviations from dose additives can be assessed numerically with a “synergy score” which quantifies the overall strength of combination effect. A synergy score >0 indicates a synergistic combination. In order to ensure only strongly synergistic combinations were selected, the acceptance criteria were set at a higher level. Strongly synergistic combinations were defined as having both a synergy score >2, a synergy score that is twice as large as the background (non-synergy) model would predict, and a maximum efficacy of >100, a value equivalent to stasis, as determined from the growth inhibition calculation.
as §1
(§7) The combinations were tested in duplicate using a 7×7 dose matrix block in 1536 well format with a cell proliferation readout as described in the Assay section infra.
(§8) All synergy calculations were performed using CHALICE software package from Zalicus and potential synergistic interactions between compound combinations were assessed using the Excess Inhibition 2D matrix according to the Loewe additivity model and were reported as synergy score (Table 10) (Lehar et al). Strongly synergistic combination were identified as having both (1) a synergy score greater than 2, a synergy score that is twice as large as the background (non-synergy) model would predict, and (2) a maximum efficacy of >100, a value roughly equivalent to stasis, as determined from the growth inhibition calculation.
as §2, §3
(§9) A six-point dose response curve for the test compounds were prepared in a 384 well ECHO compatible source plate (Labcyte P-05525) with 3-fold serial dilution series. For example, for a six-point dose response curve and a top compound concentration of 5 mM, the concentration of the compounds in the source well were 5 mM, 1.67 mM, 0.56 mM, 0.19 mM, 0.06 mM and 0.02 mM.
as §4, §5

[3] = system: SK-N-FI human neuroblastoma cells; set-up: key to Max Combo Effect: growth inhibition scale; 100 = stasis; conditions: SK-N-FI (WT); for Max Combo Effect: in % (unit assumed)
Description: as §6, §1, §7, §8, §2, §3, §9, §4, §5

[4] = system: SH-SY5Y human neuroblastoma cells; set-up: key to Max Combo Effect: growth inhibition scale; 100 = stasis; conditions: SH-SY5Y (F1174L)
Description: as §6, §1, §7, §8, §2, §3, §9, §4, §5

[5] = system: LAN-1 human neuroblastoma cells; set-up: key to Synergy score (Mean): Loewe excess inhibition synergy score; >0 synergistic; key to Max Combo Effect: growth inhibition scale; 100 = stasis; conditions: LAN-1 (F1174L)
Description: as §6, §1
The % inhibition (reduction in cell viability) by the drug treatments were recorded in the block In the dose matrix (left); the single agent treatment at the far left column and the bottom row, and the combinations in the remaining 6x6 combination blocks. The differences between the data in the dose matrix and the expected inhibition value generated by the Loewe model were reported in the Loewe Excess matrix. In this Excess Inhibition matrix, synergy is defined as values>0; that is inhibition greater than what would be expected from a simple additive interaction. Antagonism is defined as values<0; that is inhibition […] than what would be expected from a simple additive interaction. The synergy score for the drug treatments were computed taken into account of the entire 6×6 combination blocks within the matrix.
as §7, §8, §2
Synergistic combinations were identified based on the Loewe Addivity Model.

SMILES	Max Combo Effect ([1]; Table 3)	Synergy score (Mean) ([1]; Table 3)	Max Combo Effect ([2]; Table 3)	Synergy score (Mean) ([2]; Table 3)	Max Combo Effect ([3]; Table 3)	Max Combo Effect ([4]; Table 3)	Synergy score (Mean) ([4]; Table 3)	Max Combo Effect ([5]; Table 3)	Synergy score (Mean) ([5]; Table 3)	Synergy score (Mean) ([3]; Table 3)	Max Combo Effect ([1]; Table 2)	Synergy score (Mean) ([1]; Table 2)	Max Combo Effect ([2]; Table 2)	Synergy score (Mean) ([2]; Table 2)	Synergy score (Mean) ([3]; Table 2)	Max Combo Effect ([3]; Table 2)	Max Combo Effect ([4]; Table 2)	Synergy score (Mean) ([4]; Table 2)	Max Combo Effect ([5]; Table 2)	also measured
C[C@@H](Oc1cc(-c2cnn(C3CCNCC3)c2)cnc1N)c1c(Cl)ccc(F)c1Cl [Compound A3, (R)-3-(1-(2,6-dichloro-3-fluorophenyl)ethoxy)-5-(1-(piperidin-4-yl)-1H-pyrazol-4-yl)pyridin-2-amine, reference compound]	11.39	0.01	134.74	0.47	20.37	141.61	0.98	77.73	0.63	–	–	–	–	–	–	–	–	–	–	–
Cc1cc(Nc2nc(Nc3ccccc3S(=O)(=O)C(C)C)c3cn[nH]c3n2)c(OC(C)C)cc1C1CCN(C)CC1 [Compound A2, N6-(2-isopropoxy-5-methyl-4-(1-methylpiperidin-4-yl)phenyl)-N4-(2-(isopropylsulfonyl)phenyl)-1H-pyrazolo[3,4-d]pyrimidine-4,6-diamine]	184.04	0.84	191.61	0.64	161.68	–	–	–	–	0.65	–	–	–	–	–	–	–	–	–	–
CN(C)C(=O)c1cc2cnc(Nc3ccc(N4CCNCC4)cn3)nc2n1C1CCCC1 [Compound B, 7-cyclopentyl-N,N-dimethyl-2-((5-(piperazin-1-yl)pyridin-2-yl)amino)-7H-pyrrolo[2,3-d]pyrimidine-6-carboxamide]	17.0	0.01	27.66	0.19	51.2	35.3	0.09	62.78	0.25	0.21	31.2	0.084	60.5	0.255	0.435	60.3	86.8	0.811	142.3	–
Cc1cc(Nc2ncc(Cl)c(Nc3ccccc3S(=O)(=O)C(C)C)n2)c(OC(C)C)cc1C1CCNCC1 [Compound A1, 5-chloro-N2-(2-isopropoxy-5-methyl-4-(piperidin-4-yl)phenyl)-N4-[2-(propane-2-sulfonyl)-phenyl]-pyrimidine-2,4-diamine]	–	–	–	–	–	–	–	–	–	–	104.1	0.822	97.7	0.900	1.135	59.7	91.5	0.638	114.2	Synergy score (Mean) ([5]; Table 2, listed as Cmpd A1 Self Cross): 1.011; Synergy score (Mean) ([5]; Table 2, listed as Cpd A1×A1): 1.01
